In the supplement of paper PMC10307832:

Experiments:
Test in all cases: relative viability (nuclei count vs DMSO), 5 days (fraction); higher = more cells survive
IDH-C35 + Tozasertib = compound: Cc1ccccc1C(C(=O)NC1CCCCC1)N(C(=O)Cn1ccnc1C)c1cccc(F)c1 [IDH-C35] + Cc1cc(Nc2cc(N3CCN(C)CC3)nc(Sc3ccc(NC(=O)C4CC4)cc3)n2)n[nH]1 [Tozasertib] (partner 0.1 µM)
Method in brief: (§1)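 Relative viability is defined as nuclei in treated wells over nuclei in vehicle wells. Duplicate plates were run and medians reported. Lung cancer cell lines in 1536-well plates were dosed by pin tool one day after seeding, with one drug or with a fixed anchor-drug dose plus five library-drug doses (not always all listed) in √10 steps, and nuclei were counted after 5 days.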

IDH-C35 + Phenformin = compound: Cc1ccccc1C(C(=O)NC1CCCCC1)N(C(=O)Cn1ccnc1C)c1cccc(F)c1 [IDH-C35] + N=C(N)NC(=N)NCCc1ccccc1 [Phenformin] (partner 250 µM)
Method in brief: as §1

IDH-C35 + Palbociclib = compound: Cc1ccccc1C(C(=O)NC1CCCCC1)N(C(=O)Cn1ccnc1C)c1cccc(F)c1 [IDH-C35] + CC(=O)c1c(C)c2cnc(Nc3ccc(N4CCNCC4)cn3)nc2n(C2CCCC2)c1=O [Palbociclib] (partner 0.5 µM)
Method in brief: as §1

IDH-C35 + Alpelisib = compound: Cc1ccccc1C(C(=O)NC1CCCCC1)N(C(=O)Cn1ccnc1C)c1cccc(F)c1 [IDH-C35] + Cc1nc(NC(=O)N2CCC[C@H]2C(N)=O)sc1-c1ccnc(C(C)(C)C(F)(F)F)c1 [Alpelisib] (partner 2 µM)
Method in brief: as §1

Cell Line	relative viability (IDH-C35 + Tozasertib; first compound 0.08 µM)	relative viability (IDH-C35 + Tozasertib; first compound 0.253 µM)	relative viability (IDH-C35 + Tozasertib; first compound 0.8 µM)	relative viability (IDH-C35 + Tozasertib; first compound 2.53 µM)	relative viability (IDH-C35 + Tozasertib; first compound 8 µM)	relative viability (IDH-C35 + Phenformin; first compound 0.08 µM)	relative viability (IDH-C35 + Phenformin; first compound 0.253 µM)	relative viability (IDH-C35 + Phenformin; first compound 0.8 µM)	relative viability (IDH-C35 + Phenformin; first compound 2.53 µM)	relative viability (IDH-C35 + Phenformin; first compound 8 µM)	relative viability (IDH-C35 + Palbociclib; first compound 0.08 µM)	relative viability (IDH-C35 + Palbociclib; first compound 0.253 µM)	relative viability (IDH-C35 + Palbociclib; first compound 0.8 µM)	relative viability (IDH-C35 + Palbociclib; first compound 2.53 µM)	relative viability (IDH-C35 + Palbociclib; first compound 8 µM)	relative viability (IDH-C35 + Alpelisib; first compound 0.08 µM)	relative viability (IDH-C35 + Alpelisib; first compound 0.253 µM)	relative viability (IDH-C35 + Alpelisib; first compound 0.8 µM)	relative viability (IDH-C35 + Alpelisib; first compound 2.53 µM)	relative viability (IDH-C35 + Alpelisib; first compound 8 µM)
NCI-H1734	0.28	0.27	0.246	0.247	0.249	0.402	0.449	0.4	0.359	0.346	0.359	0.33	0.352	0.325	0.305	0.764	0.694	0.72	0.641	0.648
NCI-H1755	0.587	0.522	0.607	0.671	0.553	0.605	0.614	0.65	0.639	0.649	0.463	0.412	0.438	0.466	0.401	0.976	0.875	0.955	0.927	0.877
NCI-H1793	0.353	0.415	0.329		0.296	0.399	0.418	0.399		0.337	0.273	0.303	0.356	0.327	0.322	0.764	0.689	0.76	0.74	0.677
NCI-H1915	0.407	0.42	0.438	0.429	0.396	0.364	0.37	0.382	0.369	0.341	0.51	0.527	0.506	0.556	0.529	1.08	1.07	1.04	1.05	1.04
NCI-H1944	0.249	0.248	0.246	0.253	0.265	0.212	0.183	0.202	0.18	0.192	0.376	0.345	0.338	0.317	0.323	0.848	0.911	0.826	0.75	0.81
NCI-H1975	0.782	0.898	0.673	0.672	0.691	0.411	0.406	0.401	0.425	0.401	0.642	0.653	0.606	0.67	0.56	0.55	0.636	0.712	0.658	0.654
NCI-H1993	0.545	0.614	0.551	0.579	0.536	0.56	0.508	0.476	0.555	0.524	0.649	0.504	0.654	0.617	0.666	0.667	0.732	0.63	0.768	0.711
NCI-H2009	0.69	0.72	0.728	0.735	0.692	0.56	0.498	0.521	0.451	0.481	0.25	0.28	0.32	0.227	0.147	1.24	1.12	1.1	1.15	1.1
NCI-H2023	0.352	0.343	0.355	0.297	0.248	0.405	0.376	0.404	0.41	0.351	0.398	0.34	0.378	0.384	0.357	0.598	0.581	0.579	0.492	0.611
NCI-H2085	0.793	0.845	0.751	0.793	0.718	0.748	0.737	0.714	0.767	0.595	0.448	0.476	0.495	0.492	0.456	0.973	0.897	0.799	1.01	0.863
NCI-H2087	0.196	0.23	0.279		0.264	0.482	0.433	0.398		0.432	0.225	0.211	0.24	0.308	0.228	1.11	1.13	1.05	1.09	0.874
NCI-H2126	0.81	0.812	0.865	0.824	0.884	0.529	0.548	0.525	0.525	0.483	0.349	0.362	0.333	0.351	0.359	0.766	0.758	0.745	0.737	0.752
NCI-H2170	0.781	0.724	0.678	0.728	0.693	0.393	0.415	0.403	0.425	0.412	0.382	0.377	0.425	0.385	0.379	0.798	0.776	0.832	0.795	0.788
NCI-H2228	0.319	0.221	0.302	0.246	0.203	0.255	0.374	0.436	0.417	0.405	0.795	0.728	0.738	0.723	0.728	0.744	0.722	0.735	0.779	0.74
NCI-H2347	0.476	0.599	0.497	0.657	0.418	0.421	0.516	0.362	0.474	0.241	0.432	0.469	0.42	0.475	0.448	1.14	1.12	1.03	1.16	1.03
NCI-H2405	0.735	0.776	0.758	0.716	0.689	0.419	0.394	0.41	0.384	0.363	0.538	0.512	0.525	0.561	0.525	0.927	0.815	0.777		0.736
NCI-H3122	0.363	0.401	0.394	0.317	0.42	0.391	0.372	0.4	0.376	0.359	0.183	0.178	0.186	0.187	0.182	0.904	0.739	0.729	0.78	0.849
